Measured values as given in ChEMBL document CHEMBL4184259, “Design, synthesis and evaluation of 4'-OH-flurbiprofen-chalcone hybrids as potential multifunctional agents for Alzheimer's disease treatment” (Bioorg Med Chem, 2018).
The source made the active and inactive calls. The rule behind the calls is not given here.

How the values were obtained:
[1] = target: Amyloid-beta precursor protein (Homo sapiens) (UniProt P05067); assay: Inhibition of self-induced aggregation of amyloid beta (1 to 42) (unknown origin) at 25 uM after 24 hrs by thioflavin T fluorescence method relative to control
[2] = Inhibition of cupric ion-mediated amyloid beta (1 to 42) aggregation at 25 uM after 24 hrs by thioflavin T fluorescence assay relative to control
[3] = Antioxidant activity assessed as trolox equivalent of […]-induced radical scavenging activity at 1 to 10 uM pretreated for 15 mins followed by […] addition measured at 1 min interval for 90 mins by ORAC-FL assay; type: functional
BV-2 [4] = assay: Antiinflammatory activity in mouse BV2 cells assessed as inhibition of LPS-induced nitric oxide production at 2.5 uM pretreated for 30 mins followed by LPS-stimulation measured after 24 hrs by Griess assay relative to control; type: functional
BV-2 [5] = assay: Cytotoxicity against LPS-induced mouse BV2 cells assessed as effect on cell viability at 2.5 to 10 uM pretreated for 30 mins followed by LPS-stimulation after 24 hrs by MTT assay; type: cell-based; details: bv-2, 24 h
BV-2 [6] = assay: Antiinflammatory activity in mouse BV2 cells assessed as inhibition of LPS-induced nitric oxide production at 10 uM pretreated for 30 mins followed by LPS-stimulation measured after 24 hrs by Griess assay relative to control; type: functional
BV-2 [7] = assay: Antiinflammatory activity in mouse BV2 cells assessed as inhibition of LPS-induced TNFalpha production at 2.5 uM pretreated for 30 mins followed by LPS-stimulation measured after 24 hrs by ELISA relative to control; type: functional
BV-2 [8] = assay: Cytotoxicity against mouse BV2 cells assessed as reduction in cell viability at 40 uM after 30 mins by MTT assay relative to control; type: cell-based; details: bv-2, 0.5 h
BV-2 [9] = assay: Antiinflammatory activity in mouse BV2 cells assessed as inhibition of LPS-induced TNFalpha production at 10 uM pretreated for 30 mins followed by LPS-stimulation measured after 24 hrs by ELISA relative to control; type: functional
BV-2 [10] = assay: Cytotoxicity against mouse BV2 cells assessed as effect on cell viability up to 10 uM after 30 mins by MTT assay; type: cell-based; details: bv-2, 0.5 h
BV-2 [11] = assay: Antiinflammatory activity in mouse BV2 cells assessed as inhibition of LPS-induced TNFalpha production at 0.5 uM pretreated for 30 mins followed by LPS-stimulation measured after 24 hrs by ELISA relative to control; type: functional
[12] = Effective permeability of the compound in PBS/EtOH at 100 ug/ml after 18 hrs by PAMPA-BBB assay
BV-2 [13] = assay: Cytotoxicity against LPS-induced mouse BV2 cells assessed as effect on cell viability at 0.5 to 10 uM pretreated for 30 mins followed by LPS-stimulation after 24 hrs by MTT assay; type: cell-based; details: bv-2, 24 h
[14] = Metal chelating activity assessed as Cu2+-compound complex formation by measuring shift in maximum absorption wavelength at 37.5 uM after 30 mins by UV-Vis spectral analysis
[15] = Metal chelating activity assessed as mole fraction of compound required to show 1:1 stoichiometry for Cu2+-compound complex by UV-vis spectral analysis
BV-2 [16] = assay: Antiinflammatory activity in mouse BV2 cells assessed as inhibition of LPS-induced nitric oxide production at 0.5 uM pretreated for 30 mins followed by LPS-stimulation measured after 24 hrs by Griess assay relative to control; type: functional
[17] = Metal chelating activity assessed as Al3+-compound complex formation by measuring shift in maximum absorption wavelength at 37.5 uM after 30 mins by UV-Vis spectral analysis
[18] = Metal chelating activity assessed as Zn2+-compound complex formation by measuring shift in maximum absorption wavelength at 37.5 uM after 30 mins by UV-Vis spectral analysis
[19] = Metal chelating activity assessed as Fe2+-compound complex formation by measuring shift in maximum absorption wavelength at 37.5 uM after 30 mins by UV-Vis spectral analysis

Sequence of Amyloid-beta precursor protein (Homo sapiens) (P05067 whole entry): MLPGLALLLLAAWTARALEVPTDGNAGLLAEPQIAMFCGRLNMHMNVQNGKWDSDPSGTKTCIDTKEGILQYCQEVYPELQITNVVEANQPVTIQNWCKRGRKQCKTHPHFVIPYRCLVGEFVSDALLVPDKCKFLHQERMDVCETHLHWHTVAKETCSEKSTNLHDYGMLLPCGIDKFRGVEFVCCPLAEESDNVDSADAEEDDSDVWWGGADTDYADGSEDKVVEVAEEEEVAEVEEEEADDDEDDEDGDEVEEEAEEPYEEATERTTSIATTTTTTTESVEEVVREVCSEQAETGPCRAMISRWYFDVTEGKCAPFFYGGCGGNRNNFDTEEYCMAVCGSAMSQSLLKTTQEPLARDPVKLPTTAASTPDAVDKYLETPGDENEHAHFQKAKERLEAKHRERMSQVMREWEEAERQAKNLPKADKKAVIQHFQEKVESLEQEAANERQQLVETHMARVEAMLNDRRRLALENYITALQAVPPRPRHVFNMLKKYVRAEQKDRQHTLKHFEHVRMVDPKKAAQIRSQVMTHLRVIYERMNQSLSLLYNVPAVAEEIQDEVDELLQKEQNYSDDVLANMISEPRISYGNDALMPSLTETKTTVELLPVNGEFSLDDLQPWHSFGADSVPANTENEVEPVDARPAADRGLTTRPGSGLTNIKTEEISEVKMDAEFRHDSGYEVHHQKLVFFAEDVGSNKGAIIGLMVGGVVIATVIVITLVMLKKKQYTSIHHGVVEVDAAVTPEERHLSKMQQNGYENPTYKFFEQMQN

Row | SMILES | inhibition [1] [%] | inhibition [2] [%] | Activity [3] [equiv] | also measured
1 | COc1ccc(/C=C/C(=O)c2cc(-c3ccc(C(C)C(=O)O)cc3F)ccc2O)cc1 (centres undefined) | 32.9 | 29.1 | 0.61 | –
2 | CC(C(=O)O)c1ccc(-c2ccc(O)c(C(=O)/C=C/c3ccc(N4CCOCC4)cc3)c2)c(F)c1 (centres undefined) | 51.3 | 47.2 | 2.23 | –
3 | CC(C(=O)O)c1ccc(-c2ccc(O)c(C(=O)/C=C/c3cccs3)c2)c(F)c1 (centres undefined) | 16.6 | 12.1 | 1.2 | –
4 | Cc1ccc(/C=C/C(=O)c2cc(-c3ccc(C(C)C(=O)O)cc3F)ccc2O)cc1 (centres undefined) | 23.6 | 18.7 | 0.42 | –
5 | CC(C(=O)O)c1ccc(-c2ccc(O)c(C(=O)/C=C/c3ccccc3N(C)C)c2)c(F)c1 (centres undefined) | 36.8 | 20.1 | 0.77 | –
6 | CC(C(=O)O)c1ccc(-c2ccc(O)c(C(=O)/C=C/c3ccc(O)cc3)c2)c(F)c1 (centres undefined) | 18.7 | 26.1 | 3.5 | –
7 | COc1ccc(/C=C/C(=O)c2cc(-c3ccc(C(C)C(=O)O)cc3F)ccc2O)c(OC)c1 (centres undefined) | 18.8 | 45.3 | 1.05 | –
8 | COc1ccc(/C=C/C(=O)c2cc(-c3ccc(C(C)C(=O)O)cc3F)ccc2O)cc1O (centres undefined) | 31 | 14.6 | 2 | –
9 | CC(C(=O)O)c1ccc(-c2ccccc2)c(F)c1 (centres undefined) [FLURBIPROFEN] | 12.3 | 6.2 | 0.14 | inhibition at 2.5 µM (BV-2 [4]): 11.8%; Activity (BV-2 [5]): Non-Toxic; inhibition at 10 µM (BV-2 [6]): 23%; inhibition at 2.5 µM (BV-2 [7]): 9.6%; Activity (BV-2 [8]): Non-Toxic; inhibition at 10 µM (BV-2 [9]): 30.3%; Activity (BV-2 [10]): Non-Toxic
10 | CC(C(=O)O)c1ccc(-c2ccc(O)c(C(=O)/C=C/c3ccccc3O)c2)c(F)c1 (centres undefined) | 23.1 | 16.3 | 3.4 | –
11 | CCN(CC)c1ccc(/C=C/C(=O)c2cc(-c3ccc(C(C)C(=O)O)cc3F)ccc2O)cc1 (centres undefined) | 78.2 | 95 | 3.3 | inhibition at 0.5 µM (BV-2 [11]): 14.3%; inhibition at 2.5 µM (BV-2 [4]): 46.3%; Papp at 18 h, 100 ug/ml [12]: 6.66 ×10⁻⁶ cm/s; Activity (BV-2 [13]): Non-Toxic; Activity [14]: 500 nm; inhibition at 10 µM (BV-2 [6]): 68.4%; Activity [15]: 1.04 molar ratio; inhibition at 2.5 µM (BV-2 [7]): 46.2%; inhibition at 0.5 µM (BV-2 [16]): 30.1%; Activity (BV-2 [8]): 64.9%; inhibition at 10 µM (BV-2 [9]): 65.4%; Activity [17]: 516 nm; Activity (BV-2 [10]): Non-Toxic
12 | COc1ccccc1/C=C/C(=O)c1cc(-c2ccc(C(C)C(=O)O)cc2F)ccc1O (centres undefined) | 25.1 | 18.9 | 1.06 | –
13 | COc1ccc(/C=C/C(=O)c2cc(-c3ccc(C(C)C(=O)O)cc3F)ccc2O)cc1OC (centres undefined) | 14.2 | 24.5 | 1.56 | –
14 | CC(C(=O)O)c1ccc(-c2ccc(O)c(C(=O)/C=C/c3ccc(N(C)C)cc3)c2)c(F)c1 (centres undefined) | 60 | 52.4 | 3.1 | inhibition at 0.5 µM (BV-2 [11]): 12.1%; inhibition at 2.5 µM (BV-2 [4]): 36%; Papp at 18 h, 100 ug/ml [12]: 2.25 ×10⁻⁶ cm/s; Activity (BV-2 [13]): Non-Toxic; Activity [14]: 492 nm; Activity [18]: inactive; Activity [19]: inactive; inhibition at 10 µM (BV-2 [6]): 64.7%; Activity [15]: 0.99 molar ratio; inhibition at 2.5 µM (BV-2 [7]): 39.6%; inhibition at 0.5 µM (BV-2 [16]): 25.7%; Activity (BV-2 [8]): 69.1%; inhibition at 10 µM (BV-2 [9]): 61.5%; Activity [17]: 500 nm; Activity (BV-2 [10]): Non-Toxic
15 | CC(C(=O)O)c1ccc(-c2ccc(O)c(C(=O)/C=C/c3ccncc3)c2)c(F)c1 (centres undefined) | 18.2 | 52.8 | 0.9 | –
16 | CC(C(=O)O)c1ccc(-c2ccc(O)c(C(=O)/C=C/c3cccnc3)c2)c(F)c1 (centres undefined) | 8.3 | 47 | 1.1 | –
17 | COc1cc2c(cc1OC)C(=O)C(CC1CCN(Cc3ccccc3)CC1)C2 (centres undefined) | – | < 5 | – | –
18 | COc1cccc(/C=C/C(=O)c2cc(-c3ccc(C(C)C(=O)O)cc3F)ccc2O)c1O (centres undefined) | 29 | 13.4 | 1.6 | –
19 | CC(C(=O)O)c1ccc(-c2ccc(O)c(C(=O)/C=C/c3ccc(N4CCCCC4)cc3)c2)c(F)c1 (centres undefined) | 31.5 | 53.8 | 1.1 | –
20 | COc1cc(/C=C/C(=O)CC(=O)/C=C/c2ccc(O)c(OC)c2)ccc1O | – | 69.5 | – | –
21 | COc1ccc(O)c(/C=C/C(=O)c2cc(-c3ccc(C(C)C(=O)O)cc3F)ccc2O)c1 (centres undefined) | 38.1 | 22.2 | 2.5 | –
